Patent US5814467A, “APO AI polypeptides, diagnostic methods and systems for quantifying APO AI, and therapeutic methods” (The Scripps Research Institute, priority 1994, dated 1998)
Entries after “also recorded” stand apart in the source; their conditions may differ.

Assays:
[1] = system: monoclonal antibody AI-11; test: Solid-phase polypeptide direct binding ELISA; design: species or system mouse; details: peptide coated at 50 μg/ml; 0.5 μg/ml HRP-conjugated AI-11
Method: Apo AI polypeptides AI84-111, AI85-111, AI90-111, AI93-111, AI94-111, AI-94-125, AI96-111, AI99-111, and AI99-114 were tested for immunoreactivity with monoclonal antibody AI-11 in a direct binding ELISA. In the assay, 50 μg/ml of each polypeptide was dissolved in PBS to form a peptide coating solution, of which 150 μl was admixed into the wells of a flexible polyvinyl chloride microtiter plate (Immulon). The wells were then maintained about 16 to 20 at 4° C. to permit the peptide to absorb onto (coat) the walls of the wells. After removing the peptide coating solution by shaking, the wells were washed once with 350 μl of rinsing buffer (PBS containing 1 g/l BSA, 0.5 ml/l Tween 20, and 2 μl/1 aprotinin). Excess protein binding sites were blocked by admixing 200 μl of blocking buffer (PBS containing 3% BSA) into each well, maintaining the wells for 1 hour at 37° C., removing the blocking buffer by shaking, and then washing the wells 3 times as previously described. The plate was then dried for 1 hour at 37° C. followed by addition of 100 μl of PBS containing 0.5 μg/ml horseradish peroxidase conjugated AI-11 antibody to form a solid-liquid phase immunoreaction admixture. The resulting solid-liquid phase immunoreaction admixture was maintained at 20° C. for 1 hour to permit formation of a solid-phase polypeptide-containing immunoreaction product. The wells were then washed 3 times with rinsing buffer to remove unbound antibody.
The amount of immunoreaction product present in the solid phase was then determined by admixing two hundred microliters of OPD substrate into each well to form a developing-reaction admixture. The admixture was maintained for 30 minutes at about 20° C. Subsequently, 50 μl of 4N H2 SO4 were admixed into each well to stop the developing-reaction, and the resulting solution was assayed for absorbance at 450 nanometers using a microtiter plate reader (Dynatech) to detect the amount of formed immunoreaction product.

MAB AI-4 = test: Competitive RIA, MAB AI-4 binding to Apo AI/HDL-coated wells; design: species or system mouse; details: FIG. 3 and FIG. 4
Method: The immunoreactivity of MAB AI-4 for native Apo AI/HDL and various synthetic polypeptides was examined by a competitive RIA performed as follows:
(§1) One hundred μl of PBS (0.15M NaCl, 0.01M NaPO4, pH 7.2) containing 10 μg/ml Apo AI/HDL were admixed to the wells of microtiter plates. The plates were maintained for 1 hour at 20° C. on a rotating platform to allow the Apo AI/HDL to adhere to the wells and form solid supports. After aspirating excess liquid from the wells, 200 μl of block solution (3% BSA, 3% NGS in PBS) was admixed to each well, and the wells were maintained for 30 minutes at 20° C. on a rotating platform. Subsequently, the blocking solution was removed by aspiration, and the wells were washed 3 times with SPRIA buffer.
(§2) To each well was then admixed first with 50 μl of PBS containing 3% BSA and various concentrations of competitor antigen, i.e., Apo AI/HDL peptide, and, second, 50 μl of MAB AI-4 in the form of clarified ascites diluted 1:11.25×10^5 in PBS containing 3% BSA to form competitive immunoreaction admixtures. In control wells, either competing antigen or antibody was replaced by PBS containing 3% BSA.
(§3) The immunoreaction admixtures were maintained about 16 hours at 4° C. on a rotating platform to permit formation of solid-phase immunoreaction products. After washing the wells as previously described, 100 μl of ^125 I-labeled goat anti-mouse Ig (^125 I-goat anti-mouse Ig diluted to 2×10^5 trichloracetic acid precipitable disintegrations per minute per 100 μl in PBS containing 3% BSA) were admixed to each well. The labeling immunoreaction admixtures so formed were maintained for 4 hours at 4° C. on a rotating platform. Subsequently, the wells were washed with SPRIA buffer as previously described, and the amount of ^125 I-labeled solid-phase immunoreaction product formed was determined in a gamma counter.
The ability of MAB AI-4 to immunoreact with Apo AI/HDL was compared by using Apo AI/HDL and various synthetic peptides as competitors in the above-described RIA. B/Bo represents corrected CPMs which are plotted against increasing concentrations of competition in μg/ml. B/Bo values are determined in the following formula: [formula] where 0% CPM is a measure of non-specific background based on CPM obtained in RIAs where wells coated with Apo AI/HDL are reacted with the labeled secondary antibody in the absence of primary antibody and competitor, and where 100% CPM is a measure of the maximum non-competed binding of primary antibody to the substrate coated to the wells. The more efficiently a competitor binds to the primary antibody, the lower the B/Bo values.

MAB AI-11 = test: Competitive RIA, MAB AI-11 binding to Apo AI/HDL-coated wells; design: species or system mouse; details: FIG. 5 and FIG. 6
Method: as §1, §2, §3
The immunoreactivity of MAB AI-11 for native Apo AI/HDL and various synthetic polypeptides was examined by a competitive RIA as described in Example 10A. […] Other peptides were evaluated for their ability to immunoreact with AI-1l MAE in competitive RIAs described herein.

LCAT = target: T1, LCAT (Homo sapiens, UniProt P04180); details: cited from earlier work
T1 sequence (P04180 25-440): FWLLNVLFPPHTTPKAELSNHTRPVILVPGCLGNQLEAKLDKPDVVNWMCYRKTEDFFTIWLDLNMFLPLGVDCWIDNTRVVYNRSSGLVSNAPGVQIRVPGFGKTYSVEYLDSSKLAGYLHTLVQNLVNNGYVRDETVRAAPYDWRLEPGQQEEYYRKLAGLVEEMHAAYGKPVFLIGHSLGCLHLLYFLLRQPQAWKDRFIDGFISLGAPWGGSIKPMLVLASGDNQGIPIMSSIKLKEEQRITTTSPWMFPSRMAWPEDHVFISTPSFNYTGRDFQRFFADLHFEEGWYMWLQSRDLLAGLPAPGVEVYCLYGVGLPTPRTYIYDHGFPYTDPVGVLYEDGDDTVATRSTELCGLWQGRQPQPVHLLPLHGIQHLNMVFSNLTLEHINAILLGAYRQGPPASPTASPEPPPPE

[2] = system: monoclonal antibody AI-11; test: Competition ELISA, AI-11 binding to AI96-111-coated wells; design: species or system mouse; details: FIG. 2, competitor from 1 mg/ml, serial 2-fold dilutions
Method: To determine the relative effectiveness of AI-11 binding to Apo AI synthetic polypeptides, a competition ELISA was performed with AI 96-111 as the test synthetic polypeptide in comparison to Apo AI-containing serum and purified Apo AI/HDL. Microtiter plates were coated with AI 96-111 as described hereinbefore. After the drying step of the assay described hereinbefore, 50 μl of a fluid sample (i.e., an Apo AI-containing fluid sample) or standard (i.e., an Apo AI polypeptide) to be assayed were admixed into the polypeptide AI96-111-coated well simultaneously with 50 μl of HRPO-conjugated AI-11 antibody to form an immunoreaction admixture. In the assay described herein, 3 competitors were tested for their ability to compete for binding of AI-11 to the AI 96-111 polypeptide coated over a range of dilutions. The polypeptide AI 96-111 was added in separate coated wells at a starting concentration of 1 mg/ml and diluted 2-fold serially 6 times down to a final concentration of 0.0156 mg/ml. Serum samples as described in Example 2 were added at a starting dilution of 1:10 and diluted 2-fold serially 6 times down to a final dilution of […]. Apo AI/HDL as described in Example 2 was added at a starting concentration of 1 mg/ml and diluted 2-fold 5 times down to a final concentration of 0.031 mg/ml. The plate was then incubated for 30 minutes at room temperature. […]

Substance | immunoreactivity with monoclonal antibody AI-11 in direct binding ELISA [1] | immunoreactivity with MAB AI-4, competition of binding to Apo AI/HDL (MAB AI-4) | immunoreactivity with MAB AI-11, competition of binding to Apo AI/HDL (MAB AI-11) | also measured
AI99-111: Apo AI polypeptide, residues 99-111 (PYLDDFQKKWQEE) | not bound by the antibody | – | – | –
AI100-105: peptide derived from Apo AI, residues 100-105 (YLDDFQ) | – | did not react | do not immunoreact | –
AI101-111: peptide derived from Apo AI, residues 101-111 (LDDFQKKWQEE) | – | did not react | – | –
Apo AI fragment residues 148-185: Apo AI fragment residues 148-185 (Sparrow et al.) (MRDRARAHVDALRTHLAPYSDELRQRLAARLEALKENG; UniProt P02647 172-209, looked up, fragment) | – | – | – | involvement in activation of LCAT and lipid binding (LCAT; Sparrow et al. 1980): involved in both activation of LCAT and lipid binding
Apo AI residues 121-164: synthetic polypeptide corresponding to Apo AI residues 121-164 (Fukushima et al.) (PLRAELQEGARQKLHELQEKLSPLGEEMRDRARAHVDALRTHLA; UniProt P02647 145-188, looked up, fragment) | – | – | – | effectiveness relative to native Apo AI in the activation of cholesterol esterification (LCAT; Fukushima et al. 1980): 30%
Apo AI/HDL: Apo AI when it is present on HDL particles, isolated from plasma [reference compound] | – | competitively inhibit | competitively inhibit | competition for binding of AI-11 to coated AI96-111 [2]: competitively inhibit; competition for binding of AI-11 to coated AI96-111 ([2]; listed as purified HDL): greater affinity
KAKVQPYLDDXQKKWQEEMEL (KAKVQPYLDDFQKKWQEEMEL) [AI94-114] | – | partial reactivity | – | –
KAKVQPYLDDXQKKWQEEMELYRQKVEPLRAE (KAKVQPYLDDFQKKWQEEMELYRQKVEPLRAE) [AI94-125] | specifically immunoreactive | better competitor; also recorded: competitively inhibit; also recorded: immunoreacts | inhibited; also recorded: immunoreact | –
PYLDDXQKKWQEEMEL (PYLDDFQKKWQEEMEL) [AI99-114] | recognized by the antibody but with decreased specificity | partial reactivity; also recorded: immunoreacted | – | –
PYLDDXQKKWQEEMELYRQKVEP (PYLDDFQKKWQEEMELYRQKVEP) [AI99-121] | – | nearly as well as Apo AI/HDL; also recorded: competitively inhibit; also recorded: immunoreacts | does not bind; also recorded: not a competitive inhibitor | –
